Reference: ChEMBL document CHEMBL1909046, “DrugMatrix in vitro pharmacology data”

What was measured:
[1] = DRUGMATRIX: Calcium Channel Type L, Dihydropyridine radioligand binding (ligand: [3H] Nitrendipine); assay type: cell membranes, Rattus norvegicus, Wistar, Cerebral cortex, Membrane; conditions: Not Active = under 50% inhibition at 10 µM
[2] = target: T1, C-X-C chemokine receptor type 2 (Homo sapiens, UniProt P25025); assay type: cell membranes, Membrane; conditions: cho-k1; further: in other assays of this panel Not Active means under 50% inhibition at 10 µM
T1 sequence (P25025 whole entry): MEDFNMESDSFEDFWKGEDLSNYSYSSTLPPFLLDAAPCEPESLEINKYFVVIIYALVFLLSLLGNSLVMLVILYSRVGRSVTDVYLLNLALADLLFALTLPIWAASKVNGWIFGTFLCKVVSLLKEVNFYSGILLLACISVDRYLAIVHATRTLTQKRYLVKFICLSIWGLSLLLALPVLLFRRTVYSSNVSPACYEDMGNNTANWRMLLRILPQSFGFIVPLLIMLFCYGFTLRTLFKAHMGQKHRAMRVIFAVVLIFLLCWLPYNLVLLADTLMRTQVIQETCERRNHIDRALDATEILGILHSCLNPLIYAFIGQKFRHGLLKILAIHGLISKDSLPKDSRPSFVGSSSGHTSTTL

[3] = DRUGMATRIX: Interleukin IL-1 radioligand binding (ligand: [125I] interleukin 1beta); assay type: cell membranes, Membrane; conditions: nih3t3; Not Active = under 50% inhibition at 10 µM
[4] = DRUGMATRIX: Leukotriene, BLT (LTB4) radioligand binding (ligand: [3H]LTB4); assay type: cell membranes, Membrane; conditions: u-937; Not Active = under 50% inhibition at 10 µM
Mu-type opioid receptor = Mu-type opioid receptor (Homo sapiens, UniProt P35372); experiment: DRUGMATRIX: Opiate mu (OP3, MOP) radioligand binding (ligand: [3H] Diprenorphine); assay type: cell membranes, CHO-K1, Membrane; conditions: Not Active = under 50% inhibition at 10 µM
Interstitial collagenase = target: T2, Interstitial collagenase (Homo sapiens, UniProt P03956); experiment: biochemical; assay type: tissue-based, Rheumatoid synovial fibroblasts;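 further: MMP-1 enzyme inhibition assay using a peptide substrate; in other assays of this panel Not Active means under 50% inhibition at 10 µM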
T2 sequence (P03956 whole entry): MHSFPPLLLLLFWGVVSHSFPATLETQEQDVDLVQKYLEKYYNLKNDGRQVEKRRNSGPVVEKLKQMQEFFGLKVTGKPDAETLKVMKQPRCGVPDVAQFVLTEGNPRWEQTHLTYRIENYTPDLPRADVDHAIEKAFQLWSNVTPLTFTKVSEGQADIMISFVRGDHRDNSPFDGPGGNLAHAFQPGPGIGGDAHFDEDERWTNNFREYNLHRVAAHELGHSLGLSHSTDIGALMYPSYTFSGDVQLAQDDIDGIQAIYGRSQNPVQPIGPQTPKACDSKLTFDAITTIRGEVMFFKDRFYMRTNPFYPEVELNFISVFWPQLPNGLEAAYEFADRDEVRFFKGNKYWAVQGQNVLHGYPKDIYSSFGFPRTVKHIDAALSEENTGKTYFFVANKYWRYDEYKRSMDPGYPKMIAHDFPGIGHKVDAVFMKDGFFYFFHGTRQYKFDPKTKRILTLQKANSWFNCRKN

Adenosine receptor A1 = target: T3, Adenosine receptor A1 (Homo sapiens, UniProt P30542); assay type: cell membranes, CHO, Membrane; conditions: cho;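 further: radioligand binding assay at the adenosine A1 receptor, with DPCPX serving as the labelled ligand; in other assays of this panel Not Active means under 50% inhibition at 10 µM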
T3 sequence (P30542 whole entry): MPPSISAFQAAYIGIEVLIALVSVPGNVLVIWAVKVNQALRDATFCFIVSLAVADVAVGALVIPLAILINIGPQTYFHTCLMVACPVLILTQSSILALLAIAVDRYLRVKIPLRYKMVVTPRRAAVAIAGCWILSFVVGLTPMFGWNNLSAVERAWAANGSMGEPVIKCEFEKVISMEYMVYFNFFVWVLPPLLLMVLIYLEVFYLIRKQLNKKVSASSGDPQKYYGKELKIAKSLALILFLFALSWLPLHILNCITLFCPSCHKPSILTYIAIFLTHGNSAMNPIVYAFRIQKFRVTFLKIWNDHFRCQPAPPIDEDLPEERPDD

Cytochrome P450 2D6 = Cytochrome P450 2D6 (Homo sapiens, UniProt P10635); conditions: bti-tn-5b1-4; further: in other assays of this panel Not Active means under 50% inhibition at 10 µM
Cytochrome P450 2D6, sequence (P10635 whole entry): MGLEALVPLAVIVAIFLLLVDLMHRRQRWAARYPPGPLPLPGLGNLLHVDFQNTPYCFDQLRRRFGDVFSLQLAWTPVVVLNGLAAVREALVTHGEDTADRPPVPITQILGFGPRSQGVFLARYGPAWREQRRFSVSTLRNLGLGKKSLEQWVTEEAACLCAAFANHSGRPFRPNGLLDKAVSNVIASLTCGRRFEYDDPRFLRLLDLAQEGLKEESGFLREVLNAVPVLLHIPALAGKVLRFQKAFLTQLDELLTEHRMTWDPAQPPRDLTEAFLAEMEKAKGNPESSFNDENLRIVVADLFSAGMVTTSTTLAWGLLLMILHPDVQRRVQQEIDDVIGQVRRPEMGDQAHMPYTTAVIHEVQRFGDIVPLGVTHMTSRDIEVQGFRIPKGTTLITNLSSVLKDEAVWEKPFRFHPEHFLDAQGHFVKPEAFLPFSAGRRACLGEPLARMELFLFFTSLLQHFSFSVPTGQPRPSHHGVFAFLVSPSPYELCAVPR

Mu-type opioid receptor, sequence (P35372 whole entry): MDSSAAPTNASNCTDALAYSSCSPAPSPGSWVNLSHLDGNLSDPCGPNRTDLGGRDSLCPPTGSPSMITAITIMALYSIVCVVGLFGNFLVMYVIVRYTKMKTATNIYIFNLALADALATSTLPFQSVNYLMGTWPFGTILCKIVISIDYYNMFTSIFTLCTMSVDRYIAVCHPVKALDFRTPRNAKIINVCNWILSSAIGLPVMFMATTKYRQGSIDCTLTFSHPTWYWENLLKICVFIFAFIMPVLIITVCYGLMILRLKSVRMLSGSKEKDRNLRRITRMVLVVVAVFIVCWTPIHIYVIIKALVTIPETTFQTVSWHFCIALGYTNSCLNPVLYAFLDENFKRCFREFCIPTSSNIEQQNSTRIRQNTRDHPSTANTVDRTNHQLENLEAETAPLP

| Structure (SMILES) | IC50 ([1]; read-out: IC50) | Ki ([1]; read-out: Ki) | IC50 [2] | IC50 [3] | Ki [3] | IC50 [4] | Ki [4] | Ki (Mu-type opioid receptor) | IC50 (Mu-type opioid receptor; read-out: IC50) | IC50 (Interstitial collagenase) | IC50 (Adenosine receptor A1) | IC50 [1] | Ki [1] | IC50 (Mu-type opioid receptor; cho-k1) | IC50 (Cytochrome P450 2D6) | Ki (Cytochrome P450 2D6) |
| --- | --- | --- | --- | --- | --- | --- | --- | --- | --- | --- | --- | --- | --- | --- | --- | --- |
| Cc1c(C)c2c(c(C)c1O)CCC(C)(CN1CCN(c3cc(N4CCCC4)nc(N4CCCC4)n3)CC1)O2 (stereo unspecified) | 1660 nM | 1070 nM | Not Active | Not Active | Not Active | Not Active | Not Active | 4.36 µM | 10.7 µM | Not Active | Not Active | – | – | – | – | – |
| COc1ccc(CCN(C)CCCC(C#N)(c2ccc(OC)c(OC)c2)C(C)C)cc1OC (stereo unspecified) | – | – | Not Active | Not Active | Not Active | Not Active | Not Active | – | – | Not Active | Not Active | Not Active | Not Active | Not Active | Not Active | Not Active |
| CC(C)Cc1ccc([C@@H](C)C(=O)O)cc1 [(R)-IBUPROPHEN] | – | – | Not Active | Not Active | Not Active | Not Active | Not Active | – | – | Not Active | Not Active | Not Active | Not Active | Not Active | Not Active | Not Active |
| CN(C)CCOC(c1ccccc1)c1ccccc1 [DIPHENHYDRAMINE] | – | – | Not Active | – | – | – | – | – | – | Not Active | Not Active | – | – | Not Active | – | – |
| Clc1ccc(COC(Cn2ccnc2)c2ccc(Cl)cc2Cl)cc1 (stereo unspecified) [ECONAZOLE] | – | – | Not Active | – | – | – | – | – | – | Not Active | – | – | – | – | – | – |
| CCN(CC)CCOc1ccc(/C(=C(/Cl)c2ccccc2)c2ccccc2)cc1 [ENCLOMIPHENE] | – | – | Not Active | – | – | – | – | – | – | Not Active | Not Active | – | – | Not Active | – | – |
| Fc1ccc(C(c2ccc(F)cc2)N2CCN(C/C=C/c3ccccc3)CC2)cc1 [FLUNARIZINE] | – | – | Not Active | – | – | – | – | 2.12 µM | 5.24 µM | Not Active | Not Active | – | – | – | Not Active | Not Active |
| CNCCC(Oc1ccc(C(F)(F)F)cc1)c1ccccc1 (stereo unspecified) [FLUOXETINE] | – | – | Not Active | – | – | – | – | – | – | Not Active | Not Active | – | – | Not Active | – | – |
| Cc1ccc(NC(=O)c2ccc(CN3CCN(C)CC3)cc2)cc1Nc1nccc(-c2cccnc2)n1 [IMATINIB] | – | – | Not Active | – | – | – | – | – | – | Not Active | Not Active | – | – | Not Active | Not Active | Not Active |
| CC(C)Oc1ccc2c(=O)c(-c3ccccc3)coc2c1 [IPRIFLAVONE] | – | – | Not Active | Not Active | Not Active | Not Active | Not Active | – | – | Not Active | Not Active | Not Active | Not Active | Not Active | Not Active | Not Active |
| CC(C)NCC(O)c1ccc(O)c(O)c1 (stereo unspecified) [ISOPROTERENOL] | – | – | Not Active | Not Active | Not Active | Not Active | Not Active | – | – | Not Active | Not Active | Not Active | Not Active | Not Active | Not Active | Not Active |
